In ChEMBL document CHEMBL1154073, “Combining selectivity and affinity predictions using an integrated Support Vector Machine (SVM) approach: An alternative tool to discriminate between the human adenosine A(2A) and A(3) receptor pyrazolo-triazolo-pyrimidine antagonists binding sites” (Bioorg Med Chem, 2009):

How the values were obtained:
Adenosine receptor A1 = biological target: T1, Adenosine receptor A1 (Homo sapiens, UniProt P30542); assay: Displacement of [3H]CCPA from human adenosine A1 receptor expressed in CHO cells; format: cell-based
T1 sequence (P30542 whole entry): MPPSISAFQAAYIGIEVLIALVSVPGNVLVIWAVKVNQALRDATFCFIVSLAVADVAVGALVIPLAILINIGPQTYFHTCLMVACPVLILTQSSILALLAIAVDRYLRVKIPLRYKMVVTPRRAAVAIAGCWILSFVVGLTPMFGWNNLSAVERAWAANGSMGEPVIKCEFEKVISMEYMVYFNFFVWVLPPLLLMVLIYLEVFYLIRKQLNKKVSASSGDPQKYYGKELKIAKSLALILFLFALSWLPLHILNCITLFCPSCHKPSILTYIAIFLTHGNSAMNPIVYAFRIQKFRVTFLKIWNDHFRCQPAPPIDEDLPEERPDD

Adenosine receptor A3 = biological target: T2, Adenosine receptor A3 (Homo sapiens, UniProt P0DMS8); assay: Displacement of [3H]NECA from human adenosine A3 receptor expressed in CHO cells; format: cell-based
T2 sequence (P0DMS8 whole entry): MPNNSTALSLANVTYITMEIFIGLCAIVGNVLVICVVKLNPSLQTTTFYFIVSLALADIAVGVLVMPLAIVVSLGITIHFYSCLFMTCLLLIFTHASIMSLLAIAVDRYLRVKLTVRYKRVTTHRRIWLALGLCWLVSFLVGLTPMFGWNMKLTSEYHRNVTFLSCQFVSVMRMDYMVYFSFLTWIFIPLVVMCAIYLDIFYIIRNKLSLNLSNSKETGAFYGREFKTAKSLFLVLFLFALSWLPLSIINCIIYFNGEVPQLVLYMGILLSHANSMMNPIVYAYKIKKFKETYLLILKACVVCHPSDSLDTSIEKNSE

Adenosine receptor A2b = biological target: T3, Adenosine receptor A2b (Homo sapiens, UniProt P29275); assay: Antagonist activity at human adenosine A2B receptor expressed in CHO cells assessed as inhibition of NECA-induced adenylyl cyclase activity; format: functional, cell-based
T3 sequence (P29275 whole entry): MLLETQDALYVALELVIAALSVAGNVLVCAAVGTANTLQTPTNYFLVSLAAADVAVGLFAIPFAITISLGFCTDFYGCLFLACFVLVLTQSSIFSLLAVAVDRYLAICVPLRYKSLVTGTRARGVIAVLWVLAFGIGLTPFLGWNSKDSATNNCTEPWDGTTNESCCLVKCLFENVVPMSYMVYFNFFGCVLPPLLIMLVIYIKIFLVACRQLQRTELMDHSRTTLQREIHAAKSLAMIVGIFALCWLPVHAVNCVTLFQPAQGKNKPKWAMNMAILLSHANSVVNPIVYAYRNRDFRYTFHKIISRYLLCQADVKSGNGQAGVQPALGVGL

Adenosine receptor A2a = Adenosine receptor A2a (Homo sapiens, UniProt P29274); assay: biochemical
Sequence of Adenosine receptor A2a (P29274 whole entry): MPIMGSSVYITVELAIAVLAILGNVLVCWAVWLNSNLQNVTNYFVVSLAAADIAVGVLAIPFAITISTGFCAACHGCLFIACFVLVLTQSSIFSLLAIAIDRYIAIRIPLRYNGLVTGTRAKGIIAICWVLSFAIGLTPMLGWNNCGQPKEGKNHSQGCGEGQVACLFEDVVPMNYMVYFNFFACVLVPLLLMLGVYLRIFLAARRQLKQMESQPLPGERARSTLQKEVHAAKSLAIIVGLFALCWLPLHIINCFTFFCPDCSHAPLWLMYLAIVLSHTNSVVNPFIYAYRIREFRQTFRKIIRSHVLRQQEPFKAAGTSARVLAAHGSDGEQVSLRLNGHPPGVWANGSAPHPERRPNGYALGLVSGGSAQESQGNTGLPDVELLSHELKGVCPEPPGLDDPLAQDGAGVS
Description: Displacement of [3H]NECA from human adenosine A2A receptor expressed in CHO cells

| SMILES | Ki (Adenosine receptor A1) | Ki (Adenosine receptor A3) | IC50 (Adenosine receptor A2b) | Ki (Adenosine receptor A2a) |
| --- | --- | --- | --- | --- |
| CCCCn1cc2c(nc(NC(=O)Cc3cccc4ccccc34)n3nc(-c4ccco4)nc23)n1 | 170 nM | 100 nM | 7370 nM | – |
| COc1ccc(CC(=O)Nc2nc3nn(CCCc4ccccc4)cc3c3nc(-c4ccco4)nn23)cc1 | – | 120 nM | – | – |
| CCCCn1cc2c(nc(NC(=O)C(c3ccccc3)c3ccccc3)n3nc(-c4ccco4)nc23)n1 | 129 nM | 1.2 nM | 780 nM | 114 nM |
| CCCCn1cc2c(nc(NC(=O)Cc3cccs3)n3nc(-c4ccco4)nc23)n1 | 70.1 nM | 99.8 nM | 1810 nM | 4.15 nM |
| Cn1cc2c(nc(NC(=O)Cc3cccs3)n3nc(-c4ccco4)nc23)n1 | 444 nM | 5.26 nM | > 10000 nM | 56 nM |
| O=C(Cc1ccsc1)Nc1nc2nn(CCc3ccccc3)cc2c2nc(-c3ccco3)nn12 | 22.8 nM | 726 nM | > 10000 nM | – |
| O=C(Nc1cccc(Cl)c1)Nc1nc2nn(CCc3c(Br)cc(Br)cc3Br)cc2c2nc(-c3ccco3)nn12 | – | 71 nM | – | 3600 nM |
| CC(C)CCn1cc2c(nc(NC(=O)Cc3ccsc3)n3nc(-c4ccco4)nc23)n1 | – | 540 nM | – | 3.88 nM |
| Cn1cc2c(nc(NC(=O)C(c3ccccc3)c3ccccc3)n3nc(-c4ccco4)nc23)n1 | 139 nM | 0.25 nM | 363 nM | 216 nM |
| O=C(Cc1ccc(-c2ccccc2)cc1)Nc1nc2nn(CCc3ccccc3)cc2c2nc(-c3ccco3)nn12 | 84.3 nM | 125 nM | 11100 nM | 46.9 nM |
| CC(C)CCn1cc2c(nc(NC(=O)Cc3ccc(Cl)cc3)n3nc(-c4ccco4)nc23)n1 | 22.6 nM | 56.5 nM | 1220 nM | 2.75 nM |
| CCCn1cc2c(nc(NC(=O)Cc3ccc(-c4ccccc4)cc3)n3nc(-c4ccco4)nc23)n1 | 622 nM | 65.4 nM | > 10000 nM | 52.5 nM |
| Cn1cc2c(nc(NC(=O)Cc3ccc(F)cc3)n3nc(-c4ccco4)nc23)n1 | 741 nM | 0.97 nM | 13000 nM | 54.1 nM |
| Cn1cc2c(nc(NC(=O)COc3ccc(Cl)cc3)n3nc(-c4ccco4)nc23)n1 | 963 nM | 223 nM | > 10000 nM | 39.3 nM |
| Cn1cc2c(nc(NC(=O)Cc3cccc4ccccc34)n3nc(-c4ccco4)nc23)n1 | 872 nM | 3.47 nM | > 10000 nM | 80.5 nM |
| COc1ccc(NC(=O)Nc2nc3nn(CCc4c(Br)cc(Br)cc4Br)cc3c3nc(-c4ccco4)nn23)cc1 | – | 25 nM | – | 2030 nM |
| O=C(COc1ccc(Cl)cc1)Nc1nc2nn(CCCc3ccccc3)cc2c2nc(-c3ccco3)nn12 | 71.1 nM | 400 nM | > 10000 nM | – |
| CC(C)CCn1cc2c(nc(NC(=O)Cc3ccc(F)cc3)n3nc(-c4ccco4)nc23)n1 | 51.8 nM | 116 nM | 5060 nM | 3.69 nM |
| CSc1c2c(nc(NC(=O)Cc3ccc(OCC(C)C)cc3)n3nc(-c4ccco4)nc23)nn1C | – | > 1000 nM | – | 50 nM |
| O=C(Cc1c(Cl)cccc1Cl)Nc1nc2nn(CCCc3ccccc3)cc2c2nc(-c3ccco3)nn12 | 786 nM | 601 nM | > 10000 nM | 186 nM |
| CCCn1cc2c(nc(NC(=O)C(c3ccccc3)c3ccccc3)n3nc(-c4ccco4)nc23)n1 | 80.2 nM | 0.93 nM | 491 nM | 46.5 nM |
| O=C(Cc1cccc(Cl)c1)Nc1nc2nn(CCCc3ccccc3)cc2c2nc(-c3ccco3)nn12 | 605 nM | 110 nM | 50000 nM | 182 nM |
| O=C(Cc1ccccc1)Nc1nc2nn(CCc3ccccc3)cc2c2nc(-c3ccco3)nn12 | 128 nM | 5.49 nM | > 3000 nM | 43.9 nM |
| Cn1cc2c(nc(NC(=O)COc3ccccc3)n3nc(-c4ccco4)nc23)n1 | – | 692 nM | – | – |
| O=C(Cc1ccc(F)cc1)Nc1nc2nn(CCCc3ccccc3)cc2c2nc(-c3ccco3)nn12 | 726 nM | 58.5 nM | > 50000 nM | 211 nM |
| CCCCn1cc2c(nc(NC(=O)Cc3ccc(-c4ccccc4)cc3)n3nc(-c4ccco4)nc23)n1 | 381 nM | 189 nM | 8630 nM | 39.6 nM |
| CC(C)CCn1cc2c(nc(NC(=O)Cc3ccc(-c4ccccc4)cc3)n3nc(-c4ccco4)nc23)n1 | 84.3 nM | 268 nM | 8960 nM | – |

| SMILES | Ki (Adenosine receptor A1) | Ki (Adenosine receptor A3) | IC50 (Adenosine receptor A2b) | Ki (Adenosine receptor A2a) |
| --- | --- | --- | --- | --- |
| Nc1nc2c(cnn2CCCc2ccc3c(c2S(=O)(=O)O)OCO3)c2nc(-c3ccco3)nn12 | – | > 10000 nM | – | 75 nM |
| COc1ccc(CC(=O)Nc2nc3nn(C)cc3c3nc(-c4ccco4)nn23)cc1 | 133 nM | 0.95 nM | > 10000 nM | 62.5 nM |
| O=C(Nc1nc2nn(CCCc3ccccc3)cc2c2nc(-c3ccco3)nn12)C(c1ccccc1)c1ccccc1 | 307 nM | 12.6 nM | > 10000 nM | 326 nM |
| CCCn1cc2c(nc(NC(=O)Cc3cccc4ccccc34)n3nc(-c4ccco4)nc23)n1 | 388 nM | 17.3 nM | 12400 nM | 38.7 nM |
| Nc1nc2c(cnn2CCCc2ccc3c(c2)O[C@@H](C(=O)O)O3)c2nc(-c3ccco3)nn12 | – | > 10000 nM | – | 59 nM |
| CC(C)CCn1cc2c(nc(NC(=O)Cc3ccc4ccccc4c3)n3nc(-c4ccco4)nc23)n1 | 140 nM | 409 nM | > 10000 nM | 15.7 nM |
| Cn1cc2c(nc(NC(=O)Cc3ccc4ccccc4c3)n3nc(-c4ccco4)nc23)n1 | 190 nM | 14.5 nM | > 10000 nM | 77.5 nM |
| CCn1cc2c(nc(N)n3nc(-c4ccco4)nc23)n1 | – | 3760 nM | – | – |
| CC(C)CCn1cc2c(nc(NC(=O)Cc3ccc(C(F)(F)F)cc3)n3nc(-c4ccco4)nc23)n1 | 48.2 nM | 266 nM | 5480 nM | 5.43 nM |
| CCOC(=O)c1ccc(CCn2ncc3c2nc(N)n2nc(-c4ccco4)nc32)cc1 | – | > 10000 nM | – | 4 nM |
| Cn1cc2c(nc(NC(=O)Cc3ccsc3)n3nc(-c4ccco4)nc23)n1 | 461 nM | 1.25 nM | 13700 nM | 31.3 nM |
| C=Cn1cc2c(nc(NC(=O)Nc3ccc(OC)cc3)n3nc(-c4ccco4)nc23)n1 | – | 0.48 nM | – | 176 nM |
| CCOC(=O)COc1ccc(CCCn2ncc3c2nc(N)n2nc(-c4ccco4)nc32)cc1 | – | > 10000 nM | – | 0.43 nM |
| CC(C)CCn1cc2c(nc(NC(=O)Cc3cccs3)n3nc(-c4ccco4)nc23)n1 | – | 308 nM | – | – |
| COc1ccc(CC(=O)Nc2nc3nn(CCC(C)C)cc3c3nc(-c4ccco4)nn23)cc1 | – | 359 nM | – | 1.95 nM |
| CC(C)CCn1cc2c(nc(NC(=O)COc3ccc(Cl)cc3)n3nc(-c4ccco4)nc23)n1 | – | 2310 nM | – | 16.1 nM |
| COc1ccc(NC(=O)Nc2nc3nn(Cc4cccc5ccccc45)cc3c3nc(-c4ccco4)nn23)cc1 | – | 16 nM | – | 3260 nM |
| CCOC(=O)[C@H]1Oc2ccc(CCCn3ncc4c3nc(N)n3nc(-c5ccco5)nc43)cc2O1 | – | > 10000 nM | – | 5.48 nM |
| CC(C)(C)OC(=O)NCCCC(=O)Nc1nc2nn(CCc3ccccc3)cc2c2nc(-c3ccco3)nn12 | – | – | – | 288 nM |
| CCn1cc2c(nc(NC(=O)C(c3ccccc3)c3ccccc3)n3nc(-c4ccco4)nc23)n1 | – | 0.98 nM | – | 131 nM |
| O=C(Cc1cccs1)Nc1nc2nn(CCc3ccccc3)cc2c2nc(-c3ccco3)nn12 | 18.5 nM | 330 nM | > 10000 nM | – |
| O=C(COc1ccc(Cl)cc1)Nc1nc2nn(CCc3ccccc3)cc2c2nc(-c3ccco3)nn12 | – | 3250 nM | – | 31.7 nM |
| O=C(Cc1cccc(Cl)c1)Nc1nc2nn(CCc3ccccc3)cc2c2nc(-c3ccco3)nn12 | 13.2 nM | 273 nM | 9100 nM | – |
| Nc1nc2nn(CCc3c(Br)cc(Br)cc3Br)cc2c2nc(-c3ccco3)nn12 | – | 4480 nM | – | 348 nM |
| CC(C)CCn1cc2c(nc(NC(=O)CCCNC(=O)OC(C)(C)C)n3nc(-c4ccco4)nc23)n1 | – | – | – | 297 nM |
| CCCCn1cc2c(nc(NC(=O)Cc3ccc4ccccc4c3)n3nc(-c4ccco4)nc23)n1 | – | 174 nM | – | 7.94 nM |
| COc1ccc(CC(=O)Nc2nc3nn(C)c(SC)c3c3nc(-c4ccco4)nn23)cc1 | – | > 1000 nM | – | – |
